# According to ChEMBL document CHEMBL5104190, “Design, Synthesis, Biological Activity, and Structural Analysis of Novel Des-C-Ring and Aromatic-D-Ring Analogues of 1α,25-Dihydroxyvitamin D3” (J Med Chem, 2022):
# Calls of active or inactive are those of the source. No cut-off for these calls is given here.
# How the values were obtained:
# MCF7 = test: Increase in E-cadherin expression level in human MCF7 cells at 0.1 to 100 nM measured for 48 hrs by Western blot analysis; assay type: functional, cell-based; details: dose 0.1-100 nM
# CYP24A1 = target: T1, CYP24A1 (Homo sapiens, UniProt Q07973); test: Induction of CYP24A1 (unknown orgin) transcriptional activity trasfected in human MCF7 cells at 0.1 to 1000 nM incuabted for 48 hrs by luciferase reporter gene assay relative to (1R,3S)-5-(2-((1R,3aS,7aR)-1-((R)-6-hydroxy-6-methylheptan-2-yl)-7a-methyloctahydro-4H-inden-4-ylidene)ethylidene)-4-methylenecyclohexane-1,3-diol; assay type: ADME, cell-based; details: MCF7 cells transfected with CYP24A1 luciferase reporter, dose 0.1-1000 nM
# T1 sequence (Q07973 whole entry): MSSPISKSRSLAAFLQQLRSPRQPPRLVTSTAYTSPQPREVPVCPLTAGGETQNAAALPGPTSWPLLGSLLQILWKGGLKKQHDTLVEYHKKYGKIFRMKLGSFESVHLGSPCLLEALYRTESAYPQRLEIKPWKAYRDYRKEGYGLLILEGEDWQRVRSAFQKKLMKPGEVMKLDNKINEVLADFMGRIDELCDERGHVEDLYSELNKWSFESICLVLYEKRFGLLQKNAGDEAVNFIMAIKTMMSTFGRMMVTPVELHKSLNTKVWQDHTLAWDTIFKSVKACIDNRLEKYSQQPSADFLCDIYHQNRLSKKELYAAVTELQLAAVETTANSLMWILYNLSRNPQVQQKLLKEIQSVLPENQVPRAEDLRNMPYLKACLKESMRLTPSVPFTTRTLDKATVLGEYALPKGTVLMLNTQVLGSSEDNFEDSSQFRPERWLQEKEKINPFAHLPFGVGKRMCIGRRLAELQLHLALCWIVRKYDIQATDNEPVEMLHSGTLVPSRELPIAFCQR
# Vitamin D3 receptor = target: T2, Vitamin D3 receptor (Homo sapiens, UniProt P11473); test: Competitive binding affinity to His-tagged human VDR LBD (156 to 453 residues) expressed in Escherichia coli […] (DE3) cells in presence of 1,25D3 by fluorescent polarization assay
# T2 sequence (P11473 whole entry): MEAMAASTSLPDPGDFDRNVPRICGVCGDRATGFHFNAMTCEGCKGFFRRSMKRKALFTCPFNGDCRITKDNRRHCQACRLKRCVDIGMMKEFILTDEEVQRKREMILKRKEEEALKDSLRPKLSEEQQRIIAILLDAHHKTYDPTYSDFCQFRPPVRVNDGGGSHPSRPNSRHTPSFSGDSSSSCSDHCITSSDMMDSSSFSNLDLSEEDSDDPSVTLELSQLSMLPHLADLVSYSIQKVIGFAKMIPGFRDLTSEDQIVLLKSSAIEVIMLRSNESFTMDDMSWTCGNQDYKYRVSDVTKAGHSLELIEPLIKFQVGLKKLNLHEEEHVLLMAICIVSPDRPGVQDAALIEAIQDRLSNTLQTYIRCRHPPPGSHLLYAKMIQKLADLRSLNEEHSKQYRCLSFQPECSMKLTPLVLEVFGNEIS
# [1] = target: T3, Vitamin D3 receptor (Homo sapiens) (UniProt P11473); test: Competitive binding affinity to His-tagged human VDR LBD (156 to 453 residues) expressed in Escherichia coli […] (DE3) cells at 0.1 to 100 nM in presence of 1,25D3 by fluorescent polarization assay relative to (1R,3S)-5-(2-((1R,3aS,7aR)-1-((R)-6-hydroxy-6-methylheptan-2-yl)-7a-methyloctahydro-4H-inden-4-ylidene)ethylidene)-4-methylenecyclohexane-1,3-diol; details: dose 0.1-100 nM
# T3 sequence (whole entry): T2 sequence (P11473 whole entry)
Emax at 48 h (CYP24A1) [%],IC50 (Vitamin D3 receptor) [µM],Emax [1] [%],Structure (SMILES),Activity (MCF7)
54,0.0273,4.5,C=C1/C(=C\C=C(/CCCCCC(C)(C)O)c2cccc(CCCCCC(C)(C)O)c2)C[C@@H](O)C[C@@H]1O,Active
102,0.0157,7.9,C=C1/C(=C\C=C\c2cc(CCCCCC(C)(C)O)cc(CCCCCC(C)(C)O)c2)C[C@@H](O)C[C@@H]1O,Active
